# Assay results from patent publication US10550100B2, “5-[3-[piperzin-1-yl]-3-oxo-propyl]-imidazolidine-2,4-dione derivatives as ADAMTS 4 and 5 inhibitors for treating E.G. osteoarthritis” (GALAPAGOS NV, priority 2016, dated 2020).
# What was measured:
# Type in all cases: biochemical
# human TACE = human TACE (Homo sapiens (Human), UniProt P78536); experiment: hTACE 5FAM-[…]-5TAMRA cleavage assay; details: 5FAM-LAQAVRSSSRK-5TAMRA, 75 min at room temperature; read-out: hTACE potency IC50
# Description: Finally, the fluorescence is read on the Envision (Perkin Elmer) after an incubation of 75 min at room temperature (Excitation 485 nm, Emission 530).
# human ADAMTS6 = human ADAMTS6 (Homo sapiens (Human), UniProt Q9UKP5); experiment: hADAMTS-6 520 MMP FRET substrate XII cleavage assay; details: 37° C. for 2 h, read-out: hADAMTS-6 potency IC50
# Sequence of human ADAMTS6 (Q9UKP5 other isoform, or with tags, fused parts or gaps): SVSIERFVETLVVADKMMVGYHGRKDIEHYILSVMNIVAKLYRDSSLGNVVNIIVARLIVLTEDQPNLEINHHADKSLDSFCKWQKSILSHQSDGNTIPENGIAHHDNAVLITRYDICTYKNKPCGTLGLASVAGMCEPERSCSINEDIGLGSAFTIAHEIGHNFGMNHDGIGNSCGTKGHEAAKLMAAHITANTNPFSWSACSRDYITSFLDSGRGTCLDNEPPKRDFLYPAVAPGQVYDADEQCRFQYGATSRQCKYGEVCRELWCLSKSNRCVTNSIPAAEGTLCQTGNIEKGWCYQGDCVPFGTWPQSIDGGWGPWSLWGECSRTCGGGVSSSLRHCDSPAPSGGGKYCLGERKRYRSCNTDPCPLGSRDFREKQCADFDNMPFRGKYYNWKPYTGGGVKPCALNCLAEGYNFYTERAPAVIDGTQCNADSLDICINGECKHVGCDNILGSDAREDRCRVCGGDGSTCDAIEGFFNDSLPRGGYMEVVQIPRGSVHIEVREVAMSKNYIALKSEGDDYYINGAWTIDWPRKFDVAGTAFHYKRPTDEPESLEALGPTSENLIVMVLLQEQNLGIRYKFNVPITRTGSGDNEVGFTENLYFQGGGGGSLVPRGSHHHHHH
# In short: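 FRET cleavage of 520 MMP Substrate XII (Arg-Pro-Lys-Pro-Tyr-Ala-Nva-Trp-Met-Lys) by 0.73 nM enzyme in 25 mM Tris pH8.0, 0.05% CHAPS, 2.5 mM CaCl2. Compound dilution series from 20 μM top, 1/5 steps; substrate added from 1 μM stock, 2 h at 37° C. Fluorescence read at exc485/em530 for IC50.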
# human MMP13 = human MMP13 (Homo sapiens (Human), UniProt P45452); experiment: hMMP13 390 MMP FRET Substrate I cleavage assay, Protocol 1; details: Protocol 1, 390 MMP FRET Substrate I; read-out: hMMP-13 potency IC50
# In short: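 Human MMP13 was preactivated with 1 mM p-aminophenylmercuric acetate for 1 h at 37° C. Cleavage of 390 MMP FRET Substrate I (2.5 μM as added) ran 45 min at room temperature, with fluorescence read at 485 nm excitation and 530 nm emission.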
# human ADAMTS-5 = human ADAMTS-5 (Homo sapiens (Human), UniProt Q9UNA0); experiment: hADAMTS-5 TBIS-1 cleavage assay, Protocol 2; details: Protocol 2, TBIS-1 substrate, 45 min at 37° C.; read-out: hADAMTS-5 potency IC50
# Sequence of human ADAMTS-5 (Q9UNA0 262-930): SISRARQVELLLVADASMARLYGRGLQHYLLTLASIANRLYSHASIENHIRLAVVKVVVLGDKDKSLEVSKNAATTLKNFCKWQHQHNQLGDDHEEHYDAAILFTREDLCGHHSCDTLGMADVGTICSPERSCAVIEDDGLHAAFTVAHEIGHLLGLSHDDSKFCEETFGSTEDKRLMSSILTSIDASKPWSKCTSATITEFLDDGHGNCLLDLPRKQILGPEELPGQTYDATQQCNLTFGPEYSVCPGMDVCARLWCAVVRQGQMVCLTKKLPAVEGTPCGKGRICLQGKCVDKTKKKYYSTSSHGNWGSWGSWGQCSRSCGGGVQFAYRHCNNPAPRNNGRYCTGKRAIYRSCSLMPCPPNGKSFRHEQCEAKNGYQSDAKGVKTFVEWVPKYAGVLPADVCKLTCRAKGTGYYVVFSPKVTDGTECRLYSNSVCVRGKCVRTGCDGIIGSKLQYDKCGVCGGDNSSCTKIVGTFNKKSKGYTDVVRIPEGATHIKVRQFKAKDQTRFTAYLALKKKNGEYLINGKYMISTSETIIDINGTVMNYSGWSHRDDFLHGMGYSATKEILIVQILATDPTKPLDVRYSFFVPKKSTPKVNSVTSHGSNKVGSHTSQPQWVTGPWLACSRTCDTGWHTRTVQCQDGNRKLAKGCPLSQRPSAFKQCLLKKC
# Description: The basis for the assay is the cleavage of the substrate TBIS-1 (5 FAM-[…] (5TAMRA)K-NH2) (SEQ ID NO: 2) by human ADAMTS-5.
# (§1) The reaction is initiated by adding to the assay plate TBIS-1 (10 μL, 4.5 μM, Anaspec) in the same buffer.
# Finally, the fluorescence is read on the Envision (Perkin Elmer) after an incubation of 45 min at 37° C. (Excitation 485 nm, emission 530).
# rnADAMTS-5 (1-564-6H) = rnADAMTS-5 (1-564-6H) (Rattus norvegicus (Rat), UniProt Q6TY19); experiment: Rat ADAMTS-5 TBIS-1 substrate cleavage assay; details: rnADAMTS-5, TBIS-1 substrate, 120 min at 37° C.; read-out: Rat ADAMTS-5 potency IC50
# Sequence of rnADAMTS-5 (1-564-6H) (Q6TY19 entry or part of it): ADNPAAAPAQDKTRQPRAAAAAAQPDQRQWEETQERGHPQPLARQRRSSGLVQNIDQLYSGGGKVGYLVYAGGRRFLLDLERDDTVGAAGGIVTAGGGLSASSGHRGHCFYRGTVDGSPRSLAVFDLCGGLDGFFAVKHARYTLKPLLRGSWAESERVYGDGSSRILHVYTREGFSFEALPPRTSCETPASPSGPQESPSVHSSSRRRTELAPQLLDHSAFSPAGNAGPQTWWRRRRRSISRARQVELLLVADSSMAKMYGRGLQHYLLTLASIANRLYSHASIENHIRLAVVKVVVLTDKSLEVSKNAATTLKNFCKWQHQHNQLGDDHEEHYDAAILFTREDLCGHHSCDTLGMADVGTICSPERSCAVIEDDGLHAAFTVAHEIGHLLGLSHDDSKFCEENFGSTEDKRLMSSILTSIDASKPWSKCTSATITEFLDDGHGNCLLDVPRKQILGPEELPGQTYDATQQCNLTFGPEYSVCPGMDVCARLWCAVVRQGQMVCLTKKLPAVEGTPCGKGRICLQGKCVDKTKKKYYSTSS
# Description: The basis for the assay is the cleavage of the substrate TBIS-1 (5 FAM-[…] (5TAMRA)K-NH2) (SEQ ID NO: 2) by rnADAMTS-5 (1-564-6H).
# as §1
# Finally, the fluorescence is read on the Envision (Perkin Elmer) after an incubation of 120 min at 37° C. (Excitation 485 nm, emission 535).
# Sequence of human TACE (P78536 215-671): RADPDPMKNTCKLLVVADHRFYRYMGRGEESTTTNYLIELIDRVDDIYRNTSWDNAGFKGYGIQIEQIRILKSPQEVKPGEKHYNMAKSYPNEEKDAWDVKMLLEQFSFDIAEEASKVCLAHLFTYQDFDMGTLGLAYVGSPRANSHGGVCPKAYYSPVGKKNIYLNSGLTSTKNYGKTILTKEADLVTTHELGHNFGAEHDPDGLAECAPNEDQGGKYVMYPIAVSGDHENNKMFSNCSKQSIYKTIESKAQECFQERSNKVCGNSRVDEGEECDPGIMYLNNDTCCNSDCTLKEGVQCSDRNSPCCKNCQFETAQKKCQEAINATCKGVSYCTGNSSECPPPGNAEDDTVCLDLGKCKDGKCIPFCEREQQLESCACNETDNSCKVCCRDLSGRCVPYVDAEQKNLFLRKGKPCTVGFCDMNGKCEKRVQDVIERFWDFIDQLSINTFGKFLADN
IC50 (human TACE) [µM],IC50 (human ADAMTS6) [µM],IC50 (human MMP13) [µM],IC50 (human ADAMTS-5) [µM],IC50 (rnADAMTS-5 (1-564-6H)) [µM],Compound
> 0.1,0.05 to 0.1,> 0.1,> 0.1,,"CC1(CCC(=O)N2CCC(c3ccc(Cl)cc3)CC2)NC(=O)NC1=O (stereo not shown) [Cpd 12, 5-(3-(4-(4-chlorophenyl)piperidin-1-yl)-3-oxopropyl)-5-methyl-imidazolidine-2,4-dione]"
> 0.1,0.05 to 0.1,> 0.1,> 0.1,,"CC1(CCC(=O)N2CCC(c3cccc(Cl)c3)CC2)NC(=O)NC1=O (stereo not shown) [Cpd 11, 5-(3-(4-(3-chlorophenyl)piperidin-1-yl)-3-oxopropyl)-5-methyl-imidazolidine-2,4-dione]"
> 0.1,> 0.1,,> 0.1,,"O=C1NC(=O)C(CCC(=O)N2CCC(c3ccccc3)CC2)N1 (stereo not shown) [Cpd 2, 5-[3-oxo-3-(4-phenyl-1-piperidyl)propyl] imidazolidine-2,4-dione]"
> 0.1,0.025 to 0.05,> 0.1,0.05 to 0.1,> 0.1,"CC1(CCC(=O)N2CCC(c3cc(Cl)cc(Cl)c3)CC2)NC(=O)NC1=O (stereo not shown) [Cpd 9, 5-(3-(4-(3,5-dichlorophenyl)piperidin-1-yl)-3-oxopropyl)-5-methyl-imidazolidine-2,4-dione]"
> 0.1,> 0.1,> 0.1,0.05 to 0.1,0.05 to 0.1,"O=C1NC(=O)C(CCC(=O)N2CCC(c3ccccc3)CC2)(c2cccnc2)N1 (stereo not shown) [Cpd 16, 5-(3-oxo-3-(4-phenyl-piperidin-1-yl)propyl)-5-(pyridin-3-yl)imidazolidine-2,4-dione]"
> 0.1,> 0.1,,0.05 to 0.1,0.05 to 0.1,"O=C1NC(=O)C(CCC(=O)N2CCC(c3ccccc3)CC2)(c2ccccc2)N1 (stereo not shown) [Cpd 3, 5-(3-oxo-3-(4-phenylpiperidin-1-yl)propyl)-5-phenyl imidazolidine-2,4-dione]"
> 0.1,> 0.1,,> 0.1,,"CC1(CCC(=O)N2CCC(c3ccccc3)CC2)NC(=O)NC1=O (stereo not shown) [Cpd 4, 5-methyl-5-(3-oxo-3-(4-phenylpiperidin-1-yl)propyl) imidazolidine-2,4-dione]"
> 0.1,> 0.1,,0.05 to 0.1,,"CC(C)C1(CCC(=O)N2CCC(c3ccccc3)CC2)NC(=O)NC1=O (stereo not shown) [Cpd 5, 5-isopropyl-5-(3-oxo-3-(4-phenylpiperidin-1-yl)propyl) imidazolidine-2,4-dione]"
> 0.1,> 0.1,> 0.1,0.05 to 0.1,0.05 to 0.1,"O=C1NC(=O)C(CCC(=O)N2CCC(c3ccccc3)CC2)(C2CC2)N1 (stereo not shown) [Cpd 7, 5-cyclopropyl-5-(3-oxo-3-(4-phenylpiperidin-1-yl)propyl) imidazolidine-2,4-dione]"
> 0.1,> 0.1,> 0.1,> 0.1,,"CC1(CCC(=O)N2CCC(c3ccc(F)cc3)CC2)NC(=O)NC1=O (stereo not shown) [Cpd 10, 5-(3-(4-(4-fluorophenyl)piperidin-1-yl)-3-oxopropyl)-5-methyl-imidazolidine-2,4-dione]"
